Laboratory results published in patent US11161855B2, “Tricyclic fused thiophene derivatives as JAK inhibitors” (Incyte Corporation, priority 2012, dated 2021).

What was measured:
Format in all cases: biochemical
[1] = target: human JAK1 (a.a. 837-1142) (Homo sapiens, UniProt P23458); test: In vitro JAK kinase assay (HTRF), JAK1; details: 1 mM ATP
Protocol: (§1) Compounds herein were tested for inhibitory activity of JAK targets according to the following in vitro assay described in Park et al., Analytical Biochemistry 1999, 269, 94-104. The catalytic domains of human JAK1 (a.a. 837-1142), JAK2 (a.a. 828-1132) and JAK3 (a.a. 781-1124) were expressed using baculovirus in insect cells and purified. The catalytic activity of JAK1, JAK2 or JAK3 was assayed by measuring the phosphorylation of a biotinylated peptide. The phosphorylated peptide was detected by homogenous time resolved fluorescence (HTRF). IC50s of compounds were measured for each kinase in the 40 μL reactions that contain the enzyme, ATP and 500 nM peptide in 50 mM Tris (pH 7.8) buffer with 100 mM NaCl, 5 mM DTT, and 0.1 mg/mL (0.01%) BSA. For the 1 mM IC50 measurements, ATP concentration in the reactions was 1 mM. Reactions were carried out at room temperature for 1 hour and then stopped with 20 μL 45 mM EDTA, 300 nM SA-APC, 6 nM Eu-Py20 in assay buffer (Perkin Elmer, Boston, Mass.). Binding to the Europium labeled antibody took place for 40 minutes and HTRF signal was measured on a PHERA star plate reader (BMG, Cary, N.C.). The Example compounds were each tested in the Example A assay (see Table 1 for data for the compounds of the examples as tested by the assay of Example A at 1 mM ATP).

[2] = target: human JAK2 (a.a. 828-1132) (Homo sapiens (Human), UniProt O60674); test: In vitro JAK kinase assay (HTRF), JAK2; parameters: key to JAK2 IC50 (nM): + indicates an IC50 of ≤100 nM; ++ indicates an IC50 of ≤1000 nM; +++ indicates an IC50 of ≤2000 nM; ++++ indicates an IC50 of >2000 nM; +++++ indicates that the IC50 was greater than the highest concentration tested; details: 1 mM ATP
Protocol: as §1

[3] = system: human JAK1 (a.a. 837-1142); test: In vitro JAK kinase assay (HTRF), JAK1; details: ratio of IC50s, 1 mM ATP
Protocol: as §1

Chain of human JAK2 (a.a. 828-1132) (O60674 828-1132): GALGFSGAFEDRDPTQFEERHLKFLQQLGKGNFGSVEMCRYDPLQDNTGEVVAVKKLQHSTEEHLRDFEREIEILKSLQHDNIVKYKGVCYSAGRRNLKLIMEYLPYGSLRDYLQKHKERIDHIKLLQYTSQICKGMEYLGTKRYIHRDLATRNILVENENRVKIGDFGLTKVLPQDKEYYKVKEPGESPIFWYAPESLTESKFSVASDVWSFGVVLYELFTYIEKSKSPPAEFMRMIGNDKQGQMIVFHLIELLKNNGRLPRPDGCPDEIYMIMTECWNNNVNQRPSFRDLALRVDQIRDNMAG

JAK2/JAK1 [3]	Compound	IC50 [1]	JAK2 IC50 (nM) [2]	IC50 [2]
	CCc1nc2cnc3ccsc3c2n1[C@@H]1CC[C@@H](CC#N)[C@H](O)C1 (single isomer, unassigned) [40 (second peak)]	> 2000 nM	+++++	
>10	C[C@@H](O)c1nc2cnc3ccsc3c2n1[C@H]1CCCN(C(=O)CCC(F)(F)F)C1 [Example 52, (1R)-1-{1-[(3S)-1-(4,4,4-Trifluorobutanoyl)piperidin-3-yl]-1H-imidazo[4,5-d]thieno[3,2-b]pyridin-2-yl}ethanol]		+++++	
	Cc1nc2cnc3ccsc3c2n1[C@@H]1CC[C@@H](CC#N)[C@H](O)C1 (single isomer, unassigned) [41 (second peak)]	> 2000 nM	+++++	
>10	C[C@@H](O)c1nc2cnc3ccsc3c2n1[C@H]1CCN(CCCCC#N)C1 [Example 66, 5-((3S)-3-{2-[(1R)-1-Hydroxyethyl]-1H-imidazo[4,5-d]thieno[3,2-b]pyridin-1-yl}pyrrolidin-1-yl)pentanenitrile]			
>10	C[C@@H](O)c1nc2cnc3ccsc3c2n1[C@H]1CC[C@H](CC#N)CC1.Cl [Example 10, (trans-4-{2-[(1R)-1-Hydroxyethyl]-1H-imidazo[4,5-d]thieno[3,2-b]pyridin-1-yl}cyclohexyl)acetonitrile HCl Salt]			
>10	CC(C)OC(=O)NC[C@H]1CC[C@H](n2c([C@@H](C)O)nc3cnc4ccsc4c32)CC1 [Example 84, Isopropyl [(trans-4-{2-[(1R)-1-hydroxyethyl]-1H-imidazo[4,5-d]thieno[3,2-b]pyridin-1-yl}cyclohexyl)methyl]carbamate]			
>10	C[C@@H](O)c1nc2cnc3ccsc3c2n1[C@H]1CC[C@H](CCS(C)(=O)=O)CC1 [Example 5, (1R)-1-(1-{trans-4-[2-(Methylsulfonyl)ethyl]cyclohexyl}-1H-imidazo[4,5-d]thieno[3,2-b]pyridin-2-yl)ethanol]			
>10	CC(C)c1nc2cnc3ccsc3c2n1[C@H]1CC[C@H](CC#N)OC1 [Example 42, [(2R,5S)-5-(2-Isopropyl-1H-imidazo[4,5-d]thieno[3,2-b]pyridin-1-yl)tetrahydro-2H-pyran-2-yl]acetonitrile]			
>10	CCc1nc2cnc3ccsc3c2n1[C@H]1CC[C@H](CC#N)CC1 [Example 47, [trans-4-(2-Ethyl-1H-imidazo[4,5-d]thieno[3,2-b]pyridin-1-yl)cyclohexyl]acetonitrile]			
>10	C[C@@H](O)c1nc2cnc3ccsc3c2n1[C@H]1CC[C@H](CCC#N)CC1 [Example 8, 3-(trans-4-{2-[(1R)-1-Hydroxyethyl]-1H-imidazo[4,5-d]thieno[3,2-b]pyridin-1-yl}cyclohexyl)propanenitrile]			
>10	C[C@@H](O)c1nc2cnc3ccsc3c2n1[C@H]1CCN(CCCC(F)(F)F)C1 [Example 64, (1R)-1-{1-[(3S)-1-(4,4,4-Trifluorobutyl)pyrrolidin-3-yl]-1H-imidazo[4,5-d]thieno[3,2-b]pyridin-2-yl}ethanol]			
>10	C[C@@H](O)c1nc2cnc3ccsc3c2n1[C@H]1CCN(CCC#N)C1 [Example 62, 3-((3S)-3-{2-[(1R)-1-Hydroxyethyl]-1H-imidazo[4,5-d]thieno[3,2-b]pyridin-1-yl}pyrrolidin-1-yl)propanenitrile]			
>10	CC(C)c1nc2cnc3ccsc3c2n1[C@H]1CC[C@H](CC#N)CC1 [Example 27, [trans-4-(2-Isopropyl-1H-imidazo[4,5-d]thieno[3,2-b]pyridin-1-yl)cyclohexyl]acetonitrile]			
>10	C[C@@H](O)c1nc2cnc3ccsc3c2n1[C@H]1CCCN(C(=O)CCC#N)C1 [Example 58, 4-((3S)-3-{2-[(1R)-1-Hydroxyethyl]-1H-imidazo[4,5-d]thieno[3,2-b]pyridin-1-yl}piperidin-1-yl)-4-oxobutanenitrile]			
>10	C[C@@H](O)c1nc2cnc3ccsc3c2n1C1CCN(CCCC(F)(F)F)CC1 [Example 60, (1R)-1-{1-[1-(4,4,4-Trifluorobutyl)piperidin-4-yl]-1H-imidazo[4,5-d]thieno[3,2-b]pyridin-2-yl}ethanol]			
>10	C[C@@H](O)c1nc2cnc3ccsc3c2n1[C@H]1CC[C@H](CNC(=O)N(C)C)CC1 [Example 81, N′-[(trans-4-{2-[(1R)-1-Hydroxyethyl]-1H-imidazo[4,5-d]thieno[3,2-b]pyridin-1-yl}cyclohexyl)methyl]-N,N-dimethylurea]			
>10	C[C@@H](O)c1nc2cnc3ccsc3c2n1[C@H]1CC[C@H](O)CC1 [Example 3, trans-4-{2-[(1R)-1-Hydroxyethyl]-1Z-imidazo[4,5-d]thieno[3,2-b]pyridin-1-yl}cyclohexanol]			
>6	C[C@@H](O)c1nc2cnc3ccsc3c2n1[C@H]1CC[C@@H](n2cncn2)CC1 [Example 6, (1R)-1-{1-[cis-4-(1H-1,2,4-Triazol-1-yl)cyclohexyl]-1H-imidazo[4,5-d]thieno[3,2-b]pyridin-2-yl}ethanol]			
>9	C[C@@H](O)c1nc2cnc3ccsc3c2n1C1CCN(CC(F)(F)F)CC1 [Example 15, (1R)-1-{1-[1-(2,2,2-Trifluoroethyl)piperidin-4-yl]-1H-imidazo[4,5-d]thieno[3,2-b]pyridin-2-yl}ethanol]			
>10	C[C@@H](O)c1nc2cnc3ccsc3c2n1C1CCC(O)(CC#N)CC1 (single isomer, unassigned) [24 (second peak)]			
>10	C[C@@H](O)c1nc2cnc3ccsc3c2n1[C@H]1CCCN(CCC#N)C1 [Example 56, 3-((3S)-3-{2-[(1R)-1-Hydroxyethyl]-1H-imidazo[4,5-d]thieno[3,2-b]pyridin-1-yl}piperidin-1-yl)propanenitrile]			
>2	C[C@@H](O)c1nc2cnc3ccsc3c2n1C1CCC(NCCC#N)CC1 (single isomer, unassigned) [30 (first peak)]			
>10	N#CC[C@H]1CC[C@H](n2c(C3CC3)nc3cnc4ccsc4c32)CO1 [Example 43, [(2R,5S)-5-(2-Cyclopropyl-1H-imidazo[4,5-d]thieno[3,2-b]pyridin-1-yl)tetrahydro-2H-pyran-2-yl]acetonitrile]			
>10	C[C@@H](O)c1nc2cnc3ccsc3c2n1[C@H]1CCCN(C(=O)CCc2cccnc2)C1 [Example 54, (1R)-1-{1-[(3S)-1-(3-Pyridin-3-ylpropanoyl)piperidin-3-yl]-1H-imidazo[4,5-d]thieno[3,2-b]pyridin-2-yl}ethanol]			

Compound	JAK2/JAK1 [3]	IC50 [1]	JAK2 IC50 (nM) [2]	IC50 [2]
C[C@@H](O)c1nc2cnc3ccsc3c2n1[C@@H]1CC[C@@H](CC#N)[C@H](O)C1 (single isomer, unassigned) [37 (second peak)]	>10	≤ 100 nM		≤ 1000 nM
C[C@@H](O)c1nc2cnc3ccsc3c2n1[C@@H]1CC[C@@H](CC#N)[C@@H](O)C1 (single isomer, unassigned) [36 (second peak)]	>10	≤ 100 nM		≤ 1000 nM
C[C@@H](O)c1nc2cnc3ccsc3c2n1[C@H]1CC[C@H](CC#N)[C@H](O)C1 (single isomer, unassigned) [36 (first peak)]	>10	≤ 100 nM		> 2000 nM
CCc1nc2cnc3ccsc3c2n1[C@H]1CC[C@H](CC#N)[C@@H](O)C1 (single isomer, unassigned) [40 (first peak)]	>10	≤ 100 nM		≤ 1000 nM
C[C@@H](O)c1nc2cnc3ccsc3c2n1[C@H]1CC[C@H](CC#N)[C@@H](O)C1 (single isomer, unassigned) [37 (first peak)]	>10	≤ 1000 nM	+++++	
